Experiments:
[1] = Part B: effect of food (overnight fast versus standardized meal) on steady-state PK of AZD5363 tablet in patients; type: in vivo, human; details: for AUCτ, Gmean (CV%) / Cmax, Gmean (CV%) / Cmin, Gmean (CV%) / tmax, median (range): tablet 480 mg bid, steady state, N = 9
Procedure: (§1) Patients had been fasting overnight prior to the breakfast and no further food was permitted for 4 h post-dose.
The bioanalytical method used to generate AZD5363 plasma concentration data for the derivation of PK parameters for the study had been previously validated, according to regulatory guidance, by Covance UK Ltd on behalf of AstraZeneca. Following the addition of internal standard ([^13C6]AZ12886380), calibration, quality control (QC) and study samples (25 µL) were processed by solid-phase extraction then assayed for AZD5363 by liquid chromatography–tandem mass spectrometry. […] All trial samples were analysed within the known stability period for AZD5363 and all a priori assay acceptance criteria were met, in accordance with regulatory guidance.
PK parameters were derived using non-compartmental methods (Phoenix® WinNonlin®). Plasma concentration–time profiles were analysed to determine Cmax, Cmin and tmax, while AUCτ was determined from application of the linear-up/log-down trapezoidal rule.
The statistical analysis for estimating the food and capsule effect was based on analysing log-transformed PK parameters AUCτ and Cmax using a fixed-effects model with terms for patient and treatment only. All statistical calculations and analyses were performed with SAS® software, version 9.1.3 or higher. Other PK parameters are presented descriptively.

[2] = parameters: method as in PMID 29066505; details: cited from earlier work
[3] = Part A: safety and tolerability (adverse events, CTCAE v4.0) of AZD5363 tablet and capsule; type: in vivo, human
Procedure: PK parameters were assessed on the fourth day of Week 1 and Week 2 (i.e. on Day 4 and Day 11). […] Any AE occurring after the first dose of study treatment and up to 28 days after the last dose of study treatment was included in the AE summaries. The safety analysis set comprised all patients who received at least one dose of AZD5363. All safety data are presented descriptively.

[4] = Part A: steady-state PK of AZD5363 tablet versus capsule, partially fasted, in patients with advanced solid malignancies; type: in vivo, human
Procedure: PK parameters were assessed on the fourth day of Week 1 and Week 2 (i.e. on Day 4 and Day 11). […] In addition, pre-dose samples were drawn on Day 8 in Part B to verify that a washout period of 3.5 days was adequate for AZD5363. […] Following the addition of internal standard ([^13C6]AZ12886380), calibration, quality control (QC) and study samples (25 µL) were processed by solid-phase extraction then assayed for AZD5363 by liquid chromatography–tandem mass spectrometry. […] All trial samples were analysed within the known stability period for AZD5363 and all a priori assay acceptance criteria were met, in accordance with regulatory guidance. […] PK parameters were derived using non-compartmental methods (Phoenix® WinNonlin®). Plasma concentration–time profiles were analysed to determine Cmax, Cmin and tmax, while AUCτ was determined from application of the linear-up/log-down trapezoidal rule. […] The statistical analysis for estimating the food and capsule effect was based on analysing log-transformed PK parameters AUCτ and Cmax using a fixed-effects model with terms for patient and treatment only. […] Other PK parameters are presented descriptively.

[5] = Part B: safety and tolerability (adverse events, CTCAE v4.0) of AZD5363 tablet, fasted versus fed; type: in vivo, human; details: for Abdominal pain, All / Abdominal pain, Grade ≥ 3 / Anaemia, All / Anaemia, Grade ≥ 3 / Any AE (causally related), All / Any AE (causally related), Grade ≥ 3 / Any AE (irrespective of causality), All / Any AE (irrespective of causality), Grade ≥ 3 / Diarrhoea, All / Diarrhoea, Grade ≥ 3 / Hyperglycaemia, All / Hyperglycaemia, Grade ≥ 3 / Hypokalaemia, All / Hypokalaemia, Grade ≥ 3 / Pneumonia, All / Pneumonia, Grade ≥ 3 / Rash macular, All / Rash macular, Grade ≥ 3 / Rash maculopapular, All / Rash maculopapular, Grade ≥ 3 / Rash papular, All / Rash papular, Grade ≥ 3 / Skin discolouration, All / Skin discolouration, Grade ≥ 3: tablet
Procedure: as §1
Safety assessments throughout the study encompassed the incidence and severity of AEs (graded according to Common Terminology Criteria for Adverse Events [CTCAE] version 4.0), in addition to laboratory parameters (haematology, clinical chemistry, urinalysis), physical examination, 12-lead electrocardiography (ECG), and vital signs. To assess safety in the fed versus fasted state, the period during and just after the fasted day was considered relevant to the fasted dose (Days 4–7), and similarly, the fed day and subsequent days were considered relevant to the fed state (Days 11–14). Any AE occurring after the first dose of study treatment and up to 28 days after the last dose of study treatment was included in the AE summaries.
The safety analysis set comprised all patients who received at least one dose of AZD5363. All safety data are presented descriptively.

[6] = Day 11, fed (standardized meal)
[7] = tablet, N = 9, 90% CI where printed in brackets
[8] = Day 15 onward, partially fasted, N = 12

4-amino-N-[(1S)-1-(4-chlorophenyl)-3-hydroxypropyl]-1-(7H-pyrrolo[2,3-d]pyrimidin-4-yl)piperidine-4-carboxamide [AZD5363]
Pre-dose plasma concentration, geometric least-squares mean ([1]; Day 8, 3 days after the last dose on Day 4): 3.34 ng/mL
Average steady-state concentration over the 12-h dosing interval (geometric mean AUCτ/12) ([1]; Day 11): 678 ng/mL
AUCτ, Gmean (CV%) ([1]; Day 4, overnight fasted): 9116 (16.8) h ng/mL
Cmax, Gmean (CV%) ([1]; Day 4, overnight fasted): 1842 (31.1) ng/mL
Cmin, Gmean (CV%) ([1]; Day 4, overnight fasted): 218.5 (30.3) ng/mL
tmax, median (range) ([1]; Day 4, overnight fasted): 0.6 (0.5–4) h
AUCτ, Gmean (CV%) [1, 6]: 8136 (33.9) h ng/mL
Cmax, Gmean (CV%) [1, 6]: 1239 (23.3) ng/mL
Cmin, Gmean (CV%) [1, 6]: 262.3 (58.6) ng/mL
tmax, median (range) [1, 6]: 2.0 (2–4.3) h
AUCτ GLSM ratio fed:fasted [1, 7]: 0.89
Cmax GLSM ratio fed:fasted [1, 7]: 0.67
Dose proportionality of plasma exposure ([2]; dose range 80–800 mg): approximately dose proportional
Dose excreted in urine as unchanged drug ([2]; patients): less than 10%
Terminal half life ([2]; patients): approximately 10 h
Changes in ECG findings, vital signs or physical examinations [3]: no clinically significant changes
Patients with serious AEs (SAEs) ([3]; 7 of 18 patients, in two the events occurred before start of treatment): 38.9%
Plasma glucose (with plasma insulin and C-peptide) ([3]; majority of patients, similar for tablet and capsule): Elevations in plasma glucose
Intra-patient variability for AUCτ ([4]; Part A, estimated): 20%
Intra-patient variability for Cmax ([4]; Part A, estimated): 22%
Intra-subject variability in AUCτ and Cmax ([4]; Parts A and B): around 20 % CV
Number of SAEs ([5]; in six patients of 12): 11
Abdominal pain, All [5, 8]: 1 (8.3) Number of patients (%)
Abdominal pain, Grade ≥ 3 [5, 8]: 1 (8.3) Number of patients (%)
Anaemia, All [5, 8]: 1 (8.3) Number of patients (%)
Anaemia, Grade ≥ 3 [5, 8]: 1 (8.3) Number of patients (%)
Any AE (causally related), All [5, 8]: 10 (83.3) Number of patients (%)
Any AE (causally related), Grade ≥ 3 [5, 8]: 5 (41.7) Number of patients (%)
Any AE (irrespective of causality), All [5, 8]: 12 (100.0) Number of patients (%)
Any AE (irrespective of causality), Grade ≥ 3 [5, 8]: 7 (58.3) Number of patients (%)
Diarrhoea, All [5, 8]: 8 (66.7) Number of patients (%)
Diarrhoea, Grade ≥ 3 [5, 8]: 1 (8.3) Number of patients (%)
Hyperglycaemia, All [5, 8]: 6 (50.0) Number of patients (%)
Hyperglycaemia, Grade ≥ 3 [5, 8]: 5 (41.7) Number of patients (%)
Hypokalaemia, All [5, 8]: 1 (8.3) Number of patients (%)
Hypokalaemia, Grade ≥ 3 [5, 8]: 1 (8.3) Number of patients (%)
Pneumonia, All [5, 8]: 1 (8.3) Number of patients (%)
Pneumonia, Grade ≥ 3 [5, 8]: 1 (8.3) Number of patients (%)
Rash macular, All [5, 8]: 1 (8.3) Number of patients (%)
Rash macular, Grade ≥ 3 [5, 8]: 0 Number of patients (%)
Rash maculopapular, All [5, 8]: 2 (16.7) Number of patients (%)
Rash maculopapular, Grade ≥ 3 [5, 8]: 2 (16.7) Number of patients (%)
Rash papular, All [5, 8]: 0 Number of patients (%)
Rash papular, Grade ≥ 3 [5, 8]: 0 Number of patients (%)
Skin discolouration, All [5, 8]: 1 (8.3) Number of patients (%)
Skin discolouration, Grade ≥ 3 [5, 8]: 1 (8.3) Number of patients (%)
Abdominal pain, All ([5]; Days 4–7, fasted dose, N = 12): 0 Number of patients (%)
Abdominal pain, Grade ≥ 3 ([5]; Days 4–7, fasted dose, N = 12): 0 Number of patients (%)
Anaemia, All ([5]; Days 4–7, fasted dose, N = 12): 1 (8.3) Number of patients (%)
Anaemia, Grade ≥ 3 ([5]; Days 4–7, fasted dose, N = 12): 0 Number of patients (%)
Any AE (causally related), All ([5]; Days 4–7, fasted dose, N = 12): 4 (33.3) Number of patients (%)
Any AE (causally related), Grade ≥ 3 ([5]; Days 4–7, fasted dose, N = 12): 2 (16.7) Number of patients (%)
Any AE (irrespective of causality), All ([5]; Days 4–7, fasted dose, N = 12): 5 (41.7) Number of patients (%)
Any AE (irrespective of causality), Grade ≥ 3 ([5]; Days 4–7, fasted dose, N = 12): 2 (16.7) Number of patients (%)
Diarrhoea, All ([5]; Days 4–7, fasted dose, N = 12): 2 (16.7) Number of patients (%)
Diarrhoea, Grade ≥ 3 ([5]; Days 4–7, fasted dose, N = 12): 1 (8.3) Number of patients (%)
Hyperglycaemia, All ([5]; Days 4–7, fasted dose, N = 12): 1 (8.3) Number of patients (%)
Hyperglycaemia, Grade ≥ 3 ([5]; Days 4–7, fasted dose, N = 12): 1 (8.3) Number of patients (%)
Hypokalaemia, All ([5]; Days 4–7, fasted dose, N = 12): 0 Number of patients (%)
Hypokalaemia, Grade ≥ 3 ([5]; Days 4–7, fasted dose, N = 12): 0 Number of patients (%)
Pneumonia, All ([5]; Days 4–7, fasted dose, N = 12): 0 Number of patients (%)
Pneumonia, Grade ≥ 3 ([5]; Days 4–7, fasted dose, N = 12): 0 Number of patients (%)
Rash macular, All ([5]; Days 4–7, fasted dose, N = 12): 0 Number of patients (%)
Rash macular, Grade ≥ 3 ([5]; Days 4–7, fasted dose, N = 12): 0 Number of patients (%)
Rash maculopapular, All ([5]; Days 4–7, fasted dose, N = 12): 1 (8.3) Number of patients (%)
Rash maculopapular, Grade ≥ 3 ([5]; Days 4–7, fasted dose, N = 12): 0 Number of patients (%)
Rash papular, All ([5]; Days 4–7, fasted dose, N = 12): 0 Number of patients (%)
Rash papular, Grade ≥ 3 ([5]; Days 4–7, fasted dose, N = 12): 0 Number of patients (%)
Skin discolouration, All ([5]; Days 4–7, fasted dose, N = 12): 0 Number of patients (%)
Skin discolouration, Grade ≥ 3 ([5]; Days 4–7, fasted dose, N = 12): 0 Number of patients (%)
Abdominal pain, All ([5]; Days 11–14, fed dose, N = 10): 0 Number of patients (%)
Abdominal pain, Grade ≥ 3 ([5]; Days 11–14, fed dose, N = 10): 0 Number of patients (%)
Anaemia, All ([5]; Days 11–14, fed dose, N = 10): 1 (10.0) Number of patients (%)
Anaemia, Grade ≥ 3 ([5]; Days 11–14, fed dose, N = 10): 0 Number of patients (%)
Any AE (causally related), All ([5]; Days 11–14, fed dose, N = 10): 5 (50.0) Number of patients (%)
Any AE (causally related), Grade ≥ 3 ([5]; Days 11–14, fed dose, N = 10): 4 (40.0) Number of patients (%)
Any AE (irrespective of causality), All ([5]; Days 11–14, fed dose, N = 10): 6 (60.0) Number of patients (%)
Any AE (irrespective of causality), Grade ≥ 3 ([5]; Days 11–14, fed dose, N = 10): 4 (40.0) Number of patients (%)
Diarrhoea, All ([5]; Days 11–14, fed dose, N = 10): 3 (30.0) Number of patients (%)
Diarrhoea, Grade ≥ 3 ([5]; Days 11–14, fed dose, N = 10): 2 (20.0) Number of patients (%)
Hyperglycaemia, All ([5]; Days 11–14, fed dose, N = 10): 1 (10.0) Number of patients (%)
Hyperglycaemia, Grade ≥ 3 ([5]; Days 11–14, fed dose, N = 10): 1 (10.0) Number of patients (%)
Hypokalaemia, All ([5]; Days 11–14, fed dose, N = 10): 0 Number of patients (%)
Hypokalaemia, Grade ≥ 3 ([5]; Days 11–14, fed dose, N = 10): 0 Number of patients (%)
Pneumonia, All ([5]; Days 11–14, fed dose, N = 10): 0 Number of patients (%)
Pneumonia, Grade ≥ 3 ([5]; Days 11–14, fed dose, N = 10): 0 Number of patients (%)
Rash macular, All ([5]; Days 11–14, fed dose, N = 10): 1 (10.0) Number of patients (%)
Rash macular, Grade ≥ 3 ([5]; Days 11–14, fed dose, N = 10): 1 (10.0) Number of patients (%)
Rash maculopapular, All ([5]; Days 11–14, fed dose, N = 10): 2 (20.0) Number of patients (%)
Rash maculopapular, Grade ≥ 3 ([5]; Days 11–14, fed dose, N = 10): 2 (20.0) Number of patients (%)
Rash papular, All ([5]; Days 11–14, fed dose, N = 10): 1 (10.0) Number of patients (%)
Rash papular, Grade ≥ 3 ([5]; Days 11–14, fed dose, N = 10): 1 (10.0) Number of patients (%)
Skin discolouration, All ([5]; Days 11–14, fed dose, N = 10): 0 Number of patients (%)
Skin discolouration, Grade ≥ 3 ([5]; Days 11–14, fed dose, N = 10): 0 Number of patients (%)
Plasma glucose during the fasted period ([5]; up to 4 h post-dose): no indication of glucose elevation
